According to ChEMBL document CHEMBL5653612, “Catalytic site remodelling of the DOT1L methyltransferase by selective inhibitors” (Nat Commun, 2012):
The source made the active and inactive calls. The rule behind the calls is not given here.

Key:
[1] = biological target: T1, Histone-lysine N-methyltransferase, H3 lysine-79 specific (Homo sapiens, UniProt Q8TEK3); test: Binding affinity to recombinant N-terminal DOT1L (1 to 420 residues) (unknown origin) expressed in Escherichia coli (DE3) assessed as dissociation constant by surface plasmon resonance assay
T1 sequence (Q8TEK3 whole entry, the tested form may be a part): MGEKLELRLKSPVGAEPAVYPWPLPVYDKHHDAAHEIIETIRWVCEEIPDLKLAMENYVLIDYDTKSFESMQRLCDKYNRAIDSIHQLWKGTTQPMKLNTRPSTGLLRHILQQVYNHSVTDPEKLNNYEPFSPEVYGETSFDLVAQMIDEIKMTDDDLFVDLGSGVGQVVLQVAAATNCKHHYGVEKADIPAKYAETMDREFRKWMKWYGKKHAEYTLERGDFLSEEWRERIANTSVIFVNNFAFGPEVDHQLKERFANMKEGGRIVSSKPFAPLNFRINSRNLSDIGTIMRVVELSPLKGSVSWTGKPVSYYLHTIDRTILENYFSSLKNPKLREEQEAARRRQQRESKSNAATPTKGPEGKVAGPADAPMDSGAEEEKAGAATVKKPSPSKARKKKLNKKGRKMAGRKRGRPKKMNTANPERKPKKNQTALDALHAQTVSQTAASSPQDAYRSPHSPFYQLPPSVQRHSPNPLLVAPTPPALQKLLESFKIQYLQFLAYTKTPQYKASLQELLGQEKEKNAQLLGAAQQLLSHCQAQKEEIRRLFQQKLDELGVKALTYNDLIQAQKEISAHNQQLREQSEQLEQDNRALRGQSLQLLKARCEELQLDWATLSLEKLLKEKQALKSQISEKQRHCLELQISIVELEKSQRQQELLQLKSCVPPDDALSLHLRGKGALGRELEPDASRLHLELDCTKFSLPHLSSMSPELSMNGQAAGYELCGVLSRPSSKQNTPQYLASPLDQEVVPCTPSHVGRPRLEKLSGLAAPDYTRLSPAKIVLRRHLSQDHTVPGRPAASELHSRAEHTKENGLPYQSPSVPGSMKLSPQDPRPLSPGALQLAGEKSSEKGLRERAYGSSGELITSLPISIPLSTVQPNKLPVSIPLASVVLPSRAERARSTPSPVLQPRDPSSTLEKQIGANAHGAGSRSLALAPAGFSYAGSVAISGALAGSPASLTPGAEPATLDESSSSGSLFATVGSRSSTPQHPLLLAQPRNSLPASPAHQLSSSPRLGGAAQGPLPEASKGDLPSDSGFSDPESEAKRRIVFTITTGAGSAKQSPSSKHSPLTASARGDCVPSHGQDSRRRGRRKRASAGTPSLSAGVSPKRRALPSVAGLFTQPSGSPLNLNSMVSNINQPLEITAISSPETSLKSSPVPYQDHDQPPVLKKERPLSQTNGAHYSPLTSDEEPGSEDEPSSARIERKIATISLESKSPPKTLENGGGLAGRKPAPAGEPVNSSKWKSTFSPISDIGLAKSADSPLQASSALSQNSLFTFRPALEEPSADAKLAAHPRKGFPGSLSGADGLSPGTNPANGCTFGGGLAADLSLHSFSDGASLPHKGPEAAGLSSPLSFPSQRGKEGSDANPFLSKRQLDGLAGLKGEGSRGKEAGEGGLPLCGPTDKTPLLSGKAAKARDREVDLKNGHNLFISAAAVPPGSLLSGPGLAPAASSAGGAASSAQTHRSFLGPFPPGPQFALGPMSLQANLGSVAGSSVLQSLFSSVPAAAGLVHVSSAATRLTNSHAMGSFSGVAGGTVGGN

[2] = biological target: T1, Histone-lysine N-methyltransferase, H3 lysine-79 specific; test: Inhibition of recombinant N-terminal DOT1L (1 to 420 residues) (unknown origin) expressed in Escherichia coli (DE3) using [3H]-SAM as substrate preincubated for 30 mins followed by substrate addition and measured after 2 hrs by Topcount reader analysis
MV4-11 = test: Downregulation of H3K79me2 in human MV4-11 cells habouring MLL/AF4 fusion protein measured upto 48 hrs by immuno blot analysis; format: functional, cell-based
[3] = biological target: T1, Histone-lysine N-methyltransferase, H3 lysine-79 specific; test: Binding affinity to recombinant N-terminal DOT1L (1 to 420 residues) (unknown origin) expressed in Escherichia coli (DE3) assessed as dissociation constant by SPR analysis
[4] = Apparent permeability across apical to basolateral side in human Caco-2 cells at 10 uM incubated for 90 mins at pH 7.4 by LC/MS analysis; format: ADME, cell-based; details: Caco-2, pH 7.4
[5] = Apparent permeability across basolateral to apical side in human Caco-2 cells at 10 uM incubated for 90 mins at pH 7.4 by LC/MS analysis; format: ADME, cell-based; details: Caco-2, pH 7.4

CC(C)(C)c1ccc(NC(=O)NCCCNC[C@H]2O[C@@H](n3cc(Br)c4c(N)ncnc43)[C@H](O)[C@@H]2O)cc1
Kd [1]: 3.35 nM | IC50 ([2]; read-out: IC50): 3.6 nM | Activity (MV4-11): Active | Kd [3]: 3.35 nM

Cc1ccc(NC(=O)NCCCN(C[C@H]2O[C@@H](n3cnc4c(N)ncnc43)[C@H](O)[C@@H]2O)C(C)C)cc1
Kd [1]: 26.9 nM | IC50 ([2]; read-out: IC50): 40.3 nM | Activity (MV4-11): Active | Kd [3]: 26.9 nM

CC(C)N(CCCNC(=O)c1ccc(C(C)(C)C)cc1)C[C@H]1O[C@@H](n2cnc3c(N)ncnc32)[C@H](O)[C@@H]1O
IC50 [2]: Not Active

C[C@H]1O[C@@H](O[C@H]2[C@@H](O)C[C@H](O[C@H]3[C@@H](O)C[C@H](O[C@H]4CC[C@@]5(C)[C@H](CC[C@@H]6[C@@H]5C[C@@H](O)[C@]5(C)[C@@H](C7=CC(=O)OC7)CC[C@]65O)C4)O[C@@H]3C)O[C@@H]2C)C[C@H](O)[C@@H]1O [DIGOXIN]
Papp A→B at 1.5 h, 10 µM [4]: 0.4 ×10⁻⁶ cm/s | Papp B→A at 1.5 h, 10 µM [5]: 13.2 ×10⁻⁶ cm/s
